Laboratory results from ChEMBL document CHEMBL3879905, “Methods of using macrocyclic modulators of the ghrelin receptor” (2013).
Activity calls are given as the source filed them. No cut-off for these calls is given here.

Columns and labels:
[1] = species on record: Homo sapiens; assay: Selectivity for human GSHR1a over human motilin receptor
[2] = tested on: Rattus norvegicus; assay: Induction of gastric emptying of high caloric meal in Wistar rat gastroparesis model at 0.08 to […] mg/kg, iv after 60 mins; format: functional, organism-based; conditions: Stomach
[3] = tested on: Rattus norvegicus; assay: Induction of gastric emptying of solid meal in Wistar rat gastroparesis model at 5 to 50 ug/kg, iv administered immediately post methylcellulose meal containing phenol red intake measured after 15 mins by colorimetric method; format: functional, organism-based; conditions: Stomach
[4] = tested on: Rattus norvegicus; assay: Effect on pulsatile growth hormone release in plasma of free moving Sprague-Dawley rat at 5 ug/kg, iv administered at 1100 and 1300 […] during 6 hrs of sampling period measured every 15 mins over 6 hrs of sampling period by radioimmunoassay relative to vehicle-treated control; format: functional, organism-based
[5] = tested on: Rattus norvegicus; assay: Induction of gastric emptying of solid meal in Wistar rat gastroparesis model at 20 ug/kg, iv administered immediately post phenol red containing methylcellulose meal intake measured after 15 mins by colorimetric method relative to vehicle-treated control; format: functional, Stomach
[6] = tested on: Rattus norvegicus; assay: Gastrokinetic activity in Wistar rat gastroparesis model at 20 ug/kg, iv administered immediately post phenol red containing methylcellulose meal intake measured after 15 mins by colorimetric method relative to vehicle-treated control; format: functional, organism-based
[7] = target: Growth hormone secretagogue receptor type 1 (Homo sapiens, UniProt Q92847); assay: Displacement of [125I]-Ghrelin from human GSHR1a transfected in HEK293 cell membranes after 30 mins by microplate scintillation and luminescence counting method
[8] = tested on: Rattus norvegicus; assay: Gastrokinetic activity in Wistar rat gastroparesis model at 100 ug/kg, iv administered immediately post phenol red containing methylcellulose meal intake measured after 15 mins by colorimetric method relative to vehicle-treated control; format: functional, organism-based
[9] = tested on: Rattus norvegicus; assay: Induction of gastric emptying of solid meal in Sprague-Dawley rat postoperative ileus model at 100 to 300 ug/kg, iv administered prior to 99mTC labeled methylcellulose meal intake measured after 15 mins by gamma counting method relative to vehicle-treated control; format: functional, organism-based; conditions: Stomach
[10] = tested on: Rattus norvegicus; assay: Induction of gastric emptying of solid meal in iv dosed Wistar rat gastroparesis model administered immediately post methylcellulose meal containing phenol red intake measured after 15 mins by colorimetric method; format: functional, organism-based; conditions: Stomach
[11] = tested on: Rattus norvegicus; assay: Reversal of morphine-induced intestinal transit delaying in iv dosed Sprague-Dawley rat postoperative ileus model at 100 ug/kg, iv administered prior to 99mTC labeled methylcellulose meal intake measured after 15 mins by gamma counting method; format: functional, organism-based
[12] = tested on: Rattus norvegicus; assay: Induction of gastric emptying of solid meal in Wistar rat gastroparesis model at 100 ug/kg, iv administered immediately post phenol red containing methylcellulose meal intake measured after 15 mins by colorimetric method relative to vehicle-treated control; format: functional, Stomach
[13] = tested on: Rattus norvegicus; assay: Induction of gastric emptying of solid meal in Wistar rat gastroparesis model at 30 ug/kg, iv administered immediately post methylcellulose meal containing phenol red intake measured after 15 mins by colorimetric method relative to vehicle-treated control; format: functional, organism-based; conditions: Stomach

Sequence of Growth hormone secretagogue receptor type 1 (Q92847 whole entry): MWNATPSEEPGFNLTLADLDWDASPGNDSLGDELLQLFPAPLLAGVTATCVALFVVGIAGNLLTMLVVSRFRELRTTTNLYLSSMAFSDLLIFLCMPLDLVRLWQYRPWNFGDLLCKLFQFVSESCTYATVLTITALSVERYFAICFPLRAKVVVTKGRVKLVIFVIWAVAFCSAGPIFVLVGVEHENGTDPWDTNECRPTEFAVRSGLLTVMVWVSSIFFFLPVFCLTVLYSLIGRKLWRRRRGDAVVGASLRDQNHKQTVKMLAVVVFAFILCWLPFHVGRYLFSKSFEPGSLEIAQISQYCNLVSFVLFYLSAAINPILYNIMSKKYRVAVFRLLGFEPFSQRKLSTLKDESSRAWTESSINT

SMILES | Selectivity ratio [1] | also measured
C[C@@H]1C(=O)N[C@H](Cc2ccc(F)cc2)C(=O)NCCCc2ccc(F)cc2OCCN[C@@H](C2CC2)C(=O)N1C | 2500 | Activity [2]: Active
C[C@@H]1C(=O)N[C@H](Cc2ccc(O)c(C(C)(C)C)c2)C(=O)NCCCc2ccccc2OCCN[C@@H](C2CC2)C(=O)N1C | 21 | 
CCCC[C@@H]1NCCOc2ccccc2CCCNC(=O)[C@@H](Cc2ccccc2)NC(=O)CN(C)C1=O | 142 | 
CCC[C@@H]1NCCOc2ccccc2/C=C\CNC(=O)[C@@H](Cc2ccccc2)NC(=O)[C@@H](C)N(C)C1=O | 3400 | 
C[C@@H]1C(=O)N[C@H](Cc2ccccc2)C(=O)NCCCc2ccc3c(c2)OC(CC3)CN[C@@H](C2CC2)C(=O)N1C (some centres undefined) |  | Activity [2]: Active
C[C@@H]1C(=O)N[C@H](Cc2ccc(F)cc2)C(=O)NCCCc2cc(NS(C)(=O)=O)ccc2OCCN[C@@H](C2CC2)C(=O)N1C | 250 | 
CCCCCCCC(=O)OC[C@H](NC(=O)[C@H](CO)NC(=O)CN)C(=O)N[C@@H](Cc1ccccc1)C(=O)N[C@@H](CC(C)C)C(=O)N[C@@H](CO)C(=O)N1CCC[C@H]1C(=O)N[C@@H](CCC(=O)O)C(=O)N[C@@H](Cc1cnc[nH]1)C(=O)N[C@@H](CCC(N)=O)C(=O)N[C@@H](CCCNC(=N)N)C(=O)N[C@H](C(=O)N[C@@H](CCC(N)=O)C(=O)N[C@@H](CCC(N)=O)C(=O)N[C@@H](CCCNC(=N)N)C(=O)N[C@@H](CCCCN)C(=O)N[C@@H](CCC(=O)O)C(=O)N[C@@H](CO)C(=O)N[C@@H](CCCCN)C(=O)N[C@@H](CCCCN)C(=O)N1CCC[C@H]1C(=O)N1CCC[C@H]1C(=O)N[C@@H](C)C(=O)N[C@@H](CCCCN)C(=O)N[C@@H](CC(C)C)C(=O)N[C@@H](CCC(N)=O)C(=O)N1CCC[C@H]1C(=O)N[C@@H](CCCNC(=N)N)C(=O)O)C(C)C |  | Activity [3]: Active; Activity [4]: Active
CC1COc2ccccc2CCCNC(=O)[C@@H](Cc2ccc(F)cc2)NC(=O)[C@@H](C)N(C)C(=O)[C@H](C2CC2)N1 (some centres undefined) | 1700 | 
CC[C@H](C)[C@@H]1NCCOc2ccccc2CCCNC(=O)[C@@H](Cc2ccc(OC)cc2)NC(=O)[C@@H](C)N(C)C1=O | > 7100 | 
CCC(C)[C@H]1NCCOc2ccccc2[C@H]2C[C@@H]2CNC(=O)[C@H](Cc2cccc(Cl)c2)NC(=O)C2(CCCC2)NC1=O (some centres undefined) | 400 | 
C[C@@H]1C(=O)N[C@H](Cc2ccc(Cl)cc2Cl)C(=O)NCCCc2ccccc2OCCN[C@@H](C2CC2)C(=O)N1C | > 5500 | 
C[C@@H]1C(=O)N[C@H](Cc2ccc(F)cc2)C(=O)NCCCc2ncccc2OCCN[C@@H](C2CC2)C(=O)N1C | 714 | 
CC(C)C[C@@H]1NCCOc2ccccc2/C=C\CNC(=O)[C@H](Cc2ccccc2)NC(=O)C2(CCCC2)NC1=O | 200 | 
CC[C@H](C)[C@@H]1NCCCCCCCCNC(=O)[C@H](Cc2cccc(Cl)c2)NC(=O)C2(CCCC2)NC1=O | 35 | 
CC(C)[C@@H]1NCCOc2ccccc2/C=C\CNC(=O)[C@H](Cc2ccccc2)NC(=O)[C@@H](C)N(C)C1=O | > 1700 | 
C[C@@H]1CN[C@@H](C2CC2)C(=O)N(C)[C@H](C)C(=O)N[C@H](Cc2ccc(Cl)cc2)C(=O)NCCCc2ccccc2O1 |  | Activity [2]: Active
CCC[C@@H]1NCCOc2ccccc2CCCNC(=O)[C@@H](Cc2c[nH]c3ccccc23)NC(=O)CN(C)C1=O | 71 | 
CC(C)C[C@@H]1NCCOc2ccccc2/C=C\CNC(=O)[C@H](Cc2ccccc2Cl)NC(=O)C2(CCCC2)NC1=O | 1040 | 
C[C@H]1NC(=O)C2(CCCC2)NCCOc2ccccc2/C=C\CNC(=O)[C@H](Cc2cccc(Cl)c2)NC1=O | 450 | 
CC[C@H](C)[C@@H]1NCCCc2ccccc2/C=C\CNC(=O)[C@@H](Cc2ccccc2)NC(=O)[C@@H](C)N(C)C1=O | > 800 | 
C[C@@H]1CN[C@@H](C2CC2)C(=O)N(C)[C@H](C)C(=O)N[C@H](Cc2ccc(F)cc2)C(=O)NCCCc2ccc(F)cc2O1 |  | Activity [2]: Active
CCC[C@@H]1NCCOc2ccccc2CCCNC(=O)[C@@H](Cc2ccc(O)cc2)NC(=O)CN(C)C1=O | > 100 | 
CCC[C@@H]1NCCOc2ccccc2CCCNC(=O)[C@@H](Cc2ccccc2)NC(=O)[C@H](C)N(C)C1=O | 3010 | 
C[C@H](NC(=O)[C@@H](Cc1c[nH]c2ccccc12)NC(=O)[C@@H](N)Cc1cnc[nH]1)C(=O)N[C@H](Cc1c[nH]c2ccccc12)C(=O)N[C@@H](Cc1ccccc1)C(=O)N[C@@H](CCCCN)C(N)=O |  | Activity [5]: 40%; Activity [6]: Active
C[C@@H]1CN[C@@H](C2CC2)C(=O)N(C)[C@H](C)C(=O)N[C@H](Cc2ccc(Cl)cc2)C(=O)NCCCc2ccc(F)cc2O1 |  | Activity [2]: Active
C[C@@H]1C(=O)N[C@H](Cc2ccccc2)C(=O)NCCCc2ccccc2OCCN[C@@H](C(C)(C)C)C(=O)N1C | 4300 | 

SMILES | Selectivity ratio [1] | also measured
CC[C@H](C)[C@@H]1NCCOc2ccc(C(=O)O)cc2CCCNC(=O)[C@@H](Cc2ccccc2)NC(=O)[C@@H](C)N(C)C1=O | 100 | 
C[C@@H]1C(=O)N[C@H](Cc2ccc(Cl)cc2)C(=O)NCCCc2ccccc2OCCN[C@@H](C2CC2)C(=O)N1C |  | Activity [2]: Active
CC[C@H](C)[C@@H]1NCCOc2ccccc2CCCNC(=O)[C@@H](Cc2ccc(F)cc2)NC(=O)[C@@H](C)N(C)C1=O | > 7700 | 
CC(C)C[C@@H]1NCCOc2ccccc2/C=C\CNC(=O)[C@H](Cc2cccc(Cl)c2)NC(=O)C2(CCCC2)NC1=O | 1080 | Activity [2]: Active
CC[C@H](C)[C@@H]1NC[C@H](C)Oc2ccccc2CCCNC(=O)[C@H](Cc2cccc(Cl)c2)NC(=O)C2(CCCC2)NC1=O | 300 | 
CC[C@H](C)[C@@H]1NCCOc2ccccc2/C=C\CNC(=O)[C@H](Cc2ccc(Cl)cc2)NC(=O)C2(CCOC2)NC1=O (some centres undefined) | > 159 | 
CCC[C@@H]1NCCOc2ccccc2CCCNC(=O)[C@@H](Cc2ccccc2)NC(=O)CN(C)C1=O | 304 | 
CC(C)[C@@H]1NCCOc2ccccc2CCCNC(=O)[C@H](Cc2ccccc2)NC(=O)C2(CCCC2)NC1=O | 117 | 
CC[C@H](C)[C@@H]1NCCOc2ccccc2/C=C\CNC(=O)[C@@H](Cc2ccccc2)NC(=O)[C@@H](C)N(C)C1=O | > 3300 | 
C[C@H]1C(=O)N[C@@H](Cc2ccc(F)cc2)C(=O)NC[C@H]2C[C@@H]2c2ccccc2OCCN[C@H](C2CC2)C(=O)N1C | 450 | 
CC[C@H](C)[C@@H]1NCCOc2ccccc2CCCNC(=O)[C@@H](Cc2ccccc2)NC(=O)[C@@H](C)N(CC)C1=O | 3700 | 
CC[C@H](C)[C@@H]1NCCOc2ccccc2CCCNC(=O)[C@@H](Cc2cccc(Cl)c2)NC(=O)[C@@H](C)N(C)C1=O | 3040 | 
O=C1NC/C=C/c2ccccc2OCCNC2(CCCC2)C(=O)NC2(CCCC2)C(=O)N[C@H]1Cc1ccccc1 | 222 | 
C[C@@H]1CN[C@@H](C2CC2)C(=O)N(C)[C@H](C)C(=O)N[C@H](Cc2ccc(F)cc2)C(=O)NCCCc2ccccc2O1 |  | %max [7]: 96%; Activity [8]: Active; Activity [9]: Active; Activity [10]: Dose-dependent effect; Activity [11]: Dose-dependent effect; Activity [2]: Active
CC[C@H](C)[C@@H]1NCCOc2ccccc2CCCNC(=O)[C@@H](Cc2ccc(Cl)cc2)NC(=O)[C@@H](C)N(C)C1=O | 28000 | Activity [12]: 30 - 39%; Activity [8]: Active; Activity [13]: Active; Activity [2]: Active
CC[C@H](C)[C@@H]1NCCOc2ccccc2CCCNC(=O)[C@@H](Cc2cccs2)NC(=O)[C@@H](C)N(C)C1=O | > 1000 | 
C[C@@H]1C(=O)N[C@H](Cc2ccccc2)C(=O)NCCCc2ccccc2OCCN[C@@H](C2CC2)C(=O)N1C | 2500 | 
CC[C@H](C)[C@@H]1NCCOc2ccccc2CCCNC(=O)[C@@H](Cc2cccc3ccccc23)NC(=O)[C@@H](C)N(C)C1=O | 13000 | 
CC1(C)NC(=O)C2(CCCC2)NCCOc2ccccc2/C=C\CNC(=O)[C@H](Cc2cccc(Cl)c2)NC1=O | 346 | 
CC[C@H](C)[C@@H]1NCCOc2ccccc2CCCNC(=O)[C@@H](Cc2ccc3ccccc3c2)NC(=O)[C@@H](C)N(C)C1=O | 4900 | 
CC[C@H](C)[C@@H]1NCCOc2ccc(F)cc2CCCNC(=O)[C@H](Cc2cccc(Cl)c2)NC(=O)C2(CCCC2)NC1=O | 74 | 
CC(C)C1NCCOc2ccccc2/C=C\CNC(=O)C(Cc2ccccc2)NC(=O)C(C)N(C)C1=O (centres undefined) | > 1700 | 
CC[C@H](C)[C@@H]1NCCOc2ccccc2CCCNC(=O)[C@@H](Cc2ccccc2)NC(=O)[C@@H](C)N(C)C1=O | > 100 | 
CC[C@H](C)[C@@H]1NCCOc2ccccc2CCCNC(=O)[C@@H](Cc2ccccc2Cl)NC(=O)[C@@H](C)N(C)C1=O | 30000 | 
CC[C@H](C)[C@@H]1NCCCCCCCCNC(=O)[C@@H](Cc2ccccc2)NC(=O)[C@@H](C)N(C)C1=O | 28 | 
